{"source": "patent US20220143128A1", "about": "“METHODS FOR TREATING TRAUMATIC BRAIN INJURY” (BCell Solutions, Inc., priority 2018, published 2022)", "key": {"[1]": {"tested_on": "cell surface CLIP on immune cells in the spleen", "test": "Dose response of CD74 cleavage inhibitors on cell surface CLIP in the spleen after FPI", "type": "in vivo", "details": "for cell surface CLIP on immune cells in the spleen / optimal dose to reduce CLIP after FPI: administered 30 min after FPI, spleen at 1 day post-FPI", "procedure": "FIGS. 5A-5C is a set of bar graphs showing a dose response curve of inhibitors of various specific mechanisms of cleavage of full-length CD74 into CLIP 24 hours after FPI.\nIn addition to inhibiting MIF-binding to CD74, we have reduced the level of CLIP by inhibiting the distinct mechanisms by which CD74 is cleaved. Drugs that inhibit CD74 cleavage have been administered 30 min after FPI and the levels of CLIPs in the spleen have been assessed at 1 day post-FPI. […] We also found, using the proteasomal inhibitor, Bortezomib (PS341), that this compound was most efficacious at reducing cell-surface CLIP on B cells at 0.1 mg·kg, i.p. (FIG. 5B). Finally, Cystatin S is an inhibitor of Cathepsin S, which cleaves CD74 in B cells, dendritic cells, and macrophages^11,12. […] The optimal dosage is 50 mg/kg (FIG. 5C). At concentrations greater than 50 mg/kg, the compound appeared to be toxic under the tested conditions."}, "[2]": {"tested_on": "CLIP+ B cells in the brain", "test": "Brain flow cytometry for CLIP+ B cells after fluid percussion injury (FPI)", "type": "in vivo, mouse", "procedure": "The contributions of full-length cell-surface CD74 and its proteolytic products (CLIPs) in the pathogenic mechanisms that follow TBI were assessed. First, we determined if full-length CD74 on B cells was altered after fluid percussion injury (FPI) in an FPI model of TBI. A mouse model of TBI was produced and splenoctyes from those mice were isolated following FPI. The model, referred to as the “fluid percussion injury model”, is referenced in Tobin et al Acta Neuropathologica Communications 2014. Splenocytes were stained with anti-CD19 for B cells and counterstained with anti-CD74.\nIn order to address the innate immune components of CD74, a series of experiments in which MIF-binding to CD74 was antagonized at 30 min after FPI were performed. MIF mRNA levels are elevated after TBI. This occurs as a part of the innate immune response, via MIF-binding to, and signaling through cell surface CD74^35. We utilized ISO1, a small molecule that inhibits MIF-binding to CD74, to determine whether inhibition of MIF-binding would alter FPI-induced, CLIP-related cellular (FIG. 2) and neuroanatomical outcomes (FIGS. 3 and 4). ISO1 was administered at 30 mins after FPI and performed brain flow cytometry to assess what percent of leukocytes are CLIP+ B cells. It should be noted that less than 0.001 B cells enter the brain in naïve mice so they are not included in the graph."}, "GFAP+ astrocytes": {"tested_on": "GFAP+ astrocytes", "test": "GFAP-labeling of the astrocytic response in perilesion cortex after FPI", "type": "in vivo, mouse", "details": "treatment at 30 mins after FPI (ISO1 10 mg/kg), 3 days after FPI"}, "[3]": {"tested_on": "FJC-labeled cells in the perilesion area", "test": "Fluorojade C (FJC) histology of neurodegeneration in peri-injury cortex after FPI", "type": "in vivo, mouse", "details": "10 mg/kg at 30 mins after FPI; 3 days after FPI", "procedure": "FIG. 3A is a photomicrograph depicting FJC-staining in the peri-lesion area of a mouse treated with DMSO 30 mins after FPI. 3B is a comparative photomicrograph from a mouse treated with ISO1 at 30 mins after FPI. […] N=6 per group.\nWe assessed the effects of 10 mg/kg of ISO1 administered at 30 mins after FPI on neurodegeneration (FIG. 3), and the astrocytic response (FIG. 4), in peri-injury cortex, at 3 days after FPI."}, "CLIPs in MHCII": {"tested_on": "CLIPs in MHCII", "details": "treatment with Cystatin S; literature reference; cited from earlier work"}}, "note": "“Also recorded” adds a separate entry of the source."}
{"molecule": "CC(C)C[C@H](NC(=O)[C@H](Cc1ccccc1)NC(=O)c1cnccn1)B(O)O", "note": "[Bortezomib]", "values": [{"measurement": "dose most efficacious at reducing cell-surface CLIP on B cells", "setting": "[1]; i.p., 30 min after FPI, 24 hours after FPI", "result": 0.1, "unit": "mg·kg"}]}
{"molecule": "C[C@H]1CCC/C=C/[C@@H]2C[C@H](O)C[C@H]2[C@H](O)/C=C/C(=O)O1", "note": "[Brefeldin A]", "values": [{"measurement": "cell surface CLIP on immune cells in the spleen", "setting": "[1]", "result": "reduces cell surface CLIP on immune cells in the spleen"}, {"measurement": "optimal dose to reduce CLIP after FPI", "setting": "[1]", "result": 5, "unit": "mg/kg"}]}
{"molecule": "COC(=O)CC1CC(c2ccc(O)cc2)=NO1", "note": "(centres unmarked) [ISO1, 4,5-Dihydro-3-(4-hydroxyphenyl)-5-isoxazoleacetic acid methyl ester]", "values": [{"measurement": "percent of CLIP+ B cells in the brain", "setting": "[2]; administered at 30 min after FPI, brain at 24 hrs after FPI", "result": "significantly reduced the percentage of CLIP+ B cells in the brain; also recorded: reduced the percent of B cells that express CLIP in the brain"}, {"measurement": "dose providing the most significantly robust decrease in the percent of CLIP+ B cells entering the brain", "setting": "[2]; at 30 mins after FPI", "result": 10, "unit": "mg/kg"}, {"measurement": "astrocytic response (GFAP-labeling) in perilesion cortex", "setting": "GFAP+ astrocytes", "result": "significantly reduced the peak astrocyte response; also recorded: significantly reduced GFAP-labeling"}, {"measurement": "neurodegeneration (total number of FJC-labeled cells in the perilesion area)", "setting": "[3]", "result": "no effect on neurodegeneration; also recorded: no effect on the total number of FJC-labeled cells"}]}
{"molecule": "Cystatin S: inhibitor of Cathepsin S, which cleaves CD74 in B cells, dendritic cells, and macrophages (protein, UniProt P01036 21-141, looked up) Cystatin-S: SSSKEENRIIPGGIYDADLNDEWVQRALHFAISEYNKATEDEYYRRPLQVLRAREQTFGGVNYFFDVEVGRTICTKSQPNLDTCAFHEQPELQKKQLCSFEIYEVPWEDRMSLVNSRCQEA", "values": [{"measurement": "concentrations at which the compound appeared to be toxic", "setting": "[1]; FPI mice, under the tested conditions", "result": "greater than 50 mg/kg"}, {"measurement": "cell surface CLIP on immune cells in the spleen", "setting": "[1]", "result": "reduction in immune cell-surface CLIP; also recorded: reduced immune cell-surface CLIP"}, {"measurement": "optimal dose to reduce CLIP after FPI", "setting": "[1]", "result": 50, "unit": "mg/kg"}, {"measurement": "level of CLIPs in MHCII", "setting": "CLIPs in MHCII", "result": "reduces the level of CLIPs in MHCII"}]}
